A short description of series [1]: Solubility of vancomycin loaded into the polymer solution. The series is classed as physicochemical. The following applies: loaded at 50 mg/mL. Here is the method:
To prepare a solution for antibiotic delivery, the materials can be sterilized (such as by ethylene oxide gas sterilization) and then dissolved in 150 mM phosphate buffered saline (pH 7.4). After dissolution of the polymer, drug powder (finely ground) is added directly to the polymer solution and vortex mixed to distribute the drug evenly throughout the solution. The solutions can be stored in a freezer until use and thawed at the time of use. The solution then can be injected, brushed, poured, sprayed, or otherwise administered as a liquid at the desired site. The solution can also be allowed to warm to above its initial LCST and then implanted as a soft hydrogel at the desired site. Examples of desired sites for delivery of this material might include the surface of a joint prosthesis, the intramedullary canal before implantation of a prosthesis, an infected area, or any location deemed to have a risk of future infection. An example formulation might be a 30 wt % polymer solution with approximately 50 mg vancomycin hydrochloride loaded per mL of polymer solution.
FIG. 7 graphically illustrates a fraction of loaded vancomycin released from Applicants' injectable and degradable terpolymer I based gels comprising poly(NIPAAm-co-DBLA-co-JAAm) gels loaded with either 50 mg or 5 mg per gel.

Series [2] is described as follows: Swelling and degradation of gels in excess PBS (pH 7.4) at 37° C. It is filed as physicochemical. From the text:
The control copolymer comprises […] of JAAm. […] These gels dissolve in approximately 20 weeks.
Gels flow when inverted after 7-10 days and dissolve completely within 2-3 weeks.

As to `CN[C@H](CC(C)C)C(=O)N[C@H]1C(=O)N[C@@H](CC(N)=O)C(=O)N[C@H]2C(=O)N[C@H]3C(=O)N[C@H](C(=O)N[C@H](C(=O)O)c4cc(O)cc(O)c4-c4cc3ccc4O)[C@H](O)c3ccc(c(Cl)c3)Oc3cc2cc(c3O[C@@H]2O[C@H](CO)[C@@H](O)[C@H](O)[C@H]2O[C@H]2C[C@](C)(N)[C@H](O)[C@H](C)O2)Oc2ccc(cc2Cl)[C@H]1O` [vancomycin], the “solubility in polymer solution” value in series [1] is “Some vancomycin is insoluble”.
As for poly(NIPAAm-co-DBLA), the “Degradation time (37° C., pH 7.4)” value in series [2] is given as around 20 weeks.

The record behind these values is US10780145B2, “In situ forming hydrogel and method using same” (Arizona Board of Regents on behalf of Arizona State …, priority 2011, dated 2020).
